Experimental data from US12480944B2, “Detection and analysis of cells” (First Light Diagnostics, Inc., priority 2018, dated 2025).
Read-outs that look alike come from different tables or passages of the source.

Experiments:
[1] = test system: K. pneumonaie strain in clinical urine sample BIUR0084; test: Automated MultiPath AST cartridge on clinical urine specimen, Example 8; format: cell-based; settings: clinical urine BIUR0084 (K. pneumoniae), fold growth value of 2; for growth call at all antibiotic concentrations: 2 concentrations; for sensitive/resistant call by MulitPath: 4 h growth at 35° C., matched CLSI BMD
[2] = test system: K. oxytoca; set-up: key: previously determined antibiotic resistance (shown with “X”); “IR” = Intrinsically resistant; settings: cited from earlier work
[3] = test system: E. coli; set-up: key: previously determined antibiotic resistance (shown with “X”); “IR” = Intrinsically resistant; settings: cited from earlier work
[4] = test system: P. mirabilis; set-up: key: previously determined antibiotic resistance (shown with “X”); “IR” = Intrinsically resistant; settings: cited from earlier work
[5] = test system: K. pneumoniae; set-up: key: previously determined antibiotic resistance (shown with “X”); “IR” = Intrinsically resistant; settings: cited from earlier work
[6] = test system: P. aeruginosa; set-up: key: previously determined antibiotic resistance (shown with “X”); “IR” = Intrinsically resistant; settings: cited from earlier work
[7] = strain K. pneumoniae ATCC 13883
[8] = strain P. aeruginosa ATCC 27853

Compound | previously determined antibiotic resistance ([2]; strain K. oxytoca CDC0028) | previously determined antibiotic resistance ([2]; strain K. oxytoca CDC0071) | previously determined antibiotic resistance ([2]; strain K. oxytoca CDC0147) | previously determined antibiotic resistance ([3]; strain E. coli ATCC 25922) | previously determined antibiotic resistance ([4]; strain P. mirabilis ATCC 7002) | previously determined antibiotic resistance ([4]; strain P. mirabilis CDC0029) | previously determined antibiotic resistance ([4]; strain P. mirabilis CDC0059) | previously determined antibiotic resistance ([4]; strain P. mirabilis CDC0155) | previously determined antibiotic resistance ([4]; strain P. mirabilis CDC0156) | previously determined antibiotic resistance ([4]; strain P. mirabilis CDC0159) | previously determined antibiotic resistance [5, 7] | previously determined antibiotic resistance ([5]; strain K. pneumoniae CDC0010) | previously determined antibiotic resistance ([5]; strain K. pneumoniae CDC0016) | previously determined antibiotic resistance ([5]; strain K. pneumoniae CDC0126) | previously determined antibiotic resistance [6, 8] | previously determined antibiotic resistance ([6]; strain P. aeruginosa CDC0105) | previously determined antibiotic resistance ([6]; strain P. aeruginosa CDC0111) | previously determined antibiotic resistance ([6]; strain P. aeruginosa CDC0242) | previously determined antibiotic resistance ([6]; strain P. aeruginosa CDC0251) | previously determined antibiotic resistance ([6]; strain P. aeruginosa CDC0253) | further results
Cc1nnc(SCC2=C(C(=O)O)N3C(=O)[C@@H](NC(=O)Cn4cnnn4)[C@H]3SC2)s1 [Cefazolin] |  |  |  |  |  |  |  |  |  |  |  |  |  |  |  |  |  |  |  |  | growth call at all antibiotic concentrations [1]: growth; sensitive/resistant call by MulitPath [1]: resistant
Trimethoprim/Sulfamethoxazole | X | X | X | X | X | X | X | X | X | X | X | X | X | X | IR | IR | IR | IR | IR | IR | previously determined antibiotic resistance ([3]; strain E. coli BAA-2469): X; previously determined antibiotic resistance ([3]; strain E. coli BAA-2471): X; previously determined antibiotic resistance ([3]; strain E. coli CDC0017): X; previously determined antibiotic resistance ([3]; strain E. coli CDC0019): X; previously determined antibiotic resistance ([3]; strain E. coli CDC0084): X; growth call at all antibiotic concentrations [1]: growth; sensitive/resistant call by MulitPath [1]: resistant; previously determined antibiotic resistance ([5]; strain K. pneumoniae CDC0107): X; previously determined antibiotic resistance ([5]; strain K. pneumoniae CDC0117): X; previously determined antibiotic resistance ([6]; strain P. aeruginosa CDC0232): IR; previously determined antibiotic resistance ([6]; strain P. aeruginosa CDC0247): IR; previously determined antibiotic resistance ([6]; strain P. aeruginosa CDC0259): IR; previously determined antibiotic resistance ([6]; strain P. aeruginosa CDC0261): IR; previously determined antibiotic resistance ([6]; strain P. aeruginosa CDC0262): IR
CC(C)(O/N=C(\C(=O)N[C@@H]1C(=O)N2C(C(=O)[O-])=C(C[n+]3ccccc3)CS[C@H]12)c1csc(N)n1)C(=O)O [Ceftazidime] | X | X | X | X | X | X | X | X | X | X | X | X | X | X | X | X | X | X | X | X | previously determined antibiotic resistance ([3]; strain E. coli CDC0020): X; previously determined antibiotic resistance ([3]; strain E. coli CDC0067): X; previously determined antibiotic resistance ([3]; strain E. coli CDC0084): X; previously determined antibiotic resistance ([3]; strain E. coli CDC0086): X; previously determined antibiotic resistance ([3]; strain E. coli CDC0350): X; previously determined antibiotic resistance ([5]; strain K. pneumoniae CDC0041): X; previously determined antibiotic resistance ([5]; strain K. pneumoniae CDC0107): X; previously determined antibiotic resistance ([5]; strain K. pneumoniae CDC0160): X
O=C(O)c1cn(C2CC2)c2cc(N3CCNCC3)c(F)cc2c1=O [Ciprofloxacin] | X | X | X | X | X | X | X | X | X | X | X |  | X | X | X |  |  |  | X | X | previously determined antibiotic resistance ([3]; strain E. coli BAA-2452): X; previously determined antibiotic resistance ([3]; strain E. coli BAA-2469): X; previously determined antibiotic resistance ([3]; strain E. coli BAA-2471): X; previously determined antibiotic resistance ([3]; strain E. coli CDC0017): X; previously determined antibiotic resistance ([3]; strain E. coli CDC0019): X; previously determined antibiotic resistance ([5]; strain K. pneumoniae CDC0034): X; previously determined antibiotic resistance ([5]; strain K. pneumoniae CDC0076): X; previously determined antibiotic resistance ([5]; strain K. pneumoniae CDC0117): X; previously determined antibiotic resistance ([6]; strain P. aeruginosa CDC0259): X; previously determined antibiotic resistance ([6]; strain P. aeruginosa CDC0261): X; previously determined antibiotic resistance ([6]; strain P. aeruginosa CDC0262): X
C[C@@H](O)[C@H]1C(=O)N2C(C(=O)O)=C(S[C@@H]3CN[C@H](C(=O)N(C)C)C3)[C@H](C)[C@H]12 [Meropenem] | X | X | X | X | X | X | X | X | X | X | X | X | X |  |  | X | X | X |  |  | previously determined antibiotic resistance ([3]; strain E. coli CDC0001): X; previously determined antibiotic resistance ([3]; strain E. coli CDC0006): X; previously determined antibiotic resistance ([3]; strain E. coli CDC0020): X; previously determined antibiotic resistance ([3]; strain E. coli CDC0085): X; previously determined antibiotic resistance ([3]; strain E. coli CDC0114): X; previously determined antibiotic resistance ([5]; strain K. pneumoniae CDC0034): X; previously determined antibiotic resistance ([5]; strain K. pneumoniae CDC0043): X; previously determined antibiotic resistance ([5]; strain K. pneumoniae CDC0076): X; previously determined antibiotic resistance ([5]; strain K. pneumoniae CDC0080): X; previously determined antibiotic resistance ([6]; strain P. aeruginosa CDC0232): X; previously determined antibiotic resistance ([6]; strain P. aeruginosa CDC0247): X
